Consider 5 molecules from BindingDB's records for doi:10.3109/14756366.2013.777334 (S.G.S.I.T.S., 2014).

Common to all, as to assay: CA Inhibition Assay
Common to all, as to conditions: pH 7.5; 4 °C

One test deals with Carbonic anhydrase 1 (Homo sapiens, UniProt P00915). As for the experimental part:
(§1) An applied photophysics stopped-flow instrument has been used for assaying the CA catalyzed CO2 hydration activity. […] The CO2 concentrations ranged from 1.7 to 17mM for the determination of the kinetic parameters and inhibition constants. […] The uncatalyzed rates were determined in the same manner and subtracted from the total observed rates. Stock solutions of inhibitor (0.1mM) were prepared in distilled-deionized water and dilutions up to 0.01nM were done thereafter with distilled deionized water.

The next test deals with Carbonic anhydrase 2 (Homo sapiens, UniProt P00918). As for the experimental part: as §1
The target of another test is Carbonic anhydrase 12 (Homo sapiens, UniProt O43570). The procedure:
as §1

Carbonic anhydrase 12, sequence (O43570 whole entry): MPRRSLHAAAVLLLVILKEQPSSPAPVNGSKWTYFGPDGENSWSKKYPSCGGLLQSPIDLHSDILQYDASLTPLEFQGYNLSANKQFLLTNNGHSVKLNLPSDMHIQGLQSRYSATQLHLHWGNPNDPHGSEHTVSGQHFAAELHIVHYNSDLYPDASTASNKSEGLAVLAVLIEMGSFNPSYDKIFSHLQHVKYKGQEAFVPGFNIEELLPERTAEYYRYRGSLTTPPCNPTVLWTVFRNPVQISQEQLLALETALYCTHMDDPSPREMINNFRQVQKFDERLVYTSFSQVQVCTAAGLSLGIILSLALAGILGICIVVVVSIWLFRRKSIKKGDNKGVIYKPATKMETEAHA
Carbonic anhydrase 1, sequence (P00915 whole entry): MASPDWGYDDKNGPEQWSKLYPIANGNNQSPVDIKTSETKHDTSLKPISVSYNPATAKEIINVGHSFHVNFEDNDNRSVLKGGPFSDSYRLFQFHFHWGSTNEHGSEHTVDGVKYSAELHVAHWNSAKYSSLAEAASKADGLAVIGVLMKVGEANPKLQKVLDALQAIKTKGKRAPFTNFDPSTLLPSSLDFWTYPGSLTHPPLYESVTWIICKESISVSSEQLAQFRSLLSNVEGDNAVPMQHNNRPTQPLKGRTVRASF

Regarding `Cc1cc(=O)oc2cc3ccccc3cc12` [4-Methyl-2H-benzo[g]chromen-2-one (5)], the Ki was 8.2 µM at Carbonic anhydrase 1, above 200 µM on Carbonic anhydrase 2 and 3.3 µM at Carbonic anhydrase 12.

For `Cc1cc(=O)oc2c1ccc1ccccc12` [4-Methyl-2H-benzo[h]chromen-2-one (4)], the inhibitory constant (Ki) on Carbonic anhydrase 1 was 9 µM; on Carbonic anhydrase 2, above 200 µM; on Carbonic anhydrase 12 it was 5.5 µM.

Turning to `Cc1cc(=O)oc2cc(O)ccc12` [4-Methyl-7-hydroxycoumarin], the inhibition constant Ki was 4.8 µM on Carbonic anhydrase 1, above 200 µM on Carbonic anhydrase 2 and 4.3 µM on Carbonic anhydrase 12.

For the molecule `Cc1cc(=O)oc2c(O)c(O)ccc12` [7,8-Dihydroxy-4-methyl-2H-chromen-2-one (3)], the Ki on Carbonic anhydrase 1 was 8.7 µM; on Carbonic anhydrase 2, above 200 µM; at Carbonic anhydrase 12, 6.6 µM.

On to `Cc1cc(=O)oc2cc(O)cc(O)c12` [Coumarin derivative, 1b], for which the Ki at Carbonic anhydrase 1 was determined as 8.4 µM; at Carbonic anhydrase 12, 6.4 µM.
